{"source": "paper PMC9090415", "about": "“Discovery of small molecule inhibitors of Plasmodium falciparum apicoplast DNA polymerase” (Journal of Enzyme Inhibition and Medicinal Chemistry, 2022)", "target": "P. falciparum apicoplast DNA polymerase (Pf-apPOL) (Plasmodium falciparum, UniProt Q8ILY1)", "sequence (Q8ILY1 entry or part of it)": "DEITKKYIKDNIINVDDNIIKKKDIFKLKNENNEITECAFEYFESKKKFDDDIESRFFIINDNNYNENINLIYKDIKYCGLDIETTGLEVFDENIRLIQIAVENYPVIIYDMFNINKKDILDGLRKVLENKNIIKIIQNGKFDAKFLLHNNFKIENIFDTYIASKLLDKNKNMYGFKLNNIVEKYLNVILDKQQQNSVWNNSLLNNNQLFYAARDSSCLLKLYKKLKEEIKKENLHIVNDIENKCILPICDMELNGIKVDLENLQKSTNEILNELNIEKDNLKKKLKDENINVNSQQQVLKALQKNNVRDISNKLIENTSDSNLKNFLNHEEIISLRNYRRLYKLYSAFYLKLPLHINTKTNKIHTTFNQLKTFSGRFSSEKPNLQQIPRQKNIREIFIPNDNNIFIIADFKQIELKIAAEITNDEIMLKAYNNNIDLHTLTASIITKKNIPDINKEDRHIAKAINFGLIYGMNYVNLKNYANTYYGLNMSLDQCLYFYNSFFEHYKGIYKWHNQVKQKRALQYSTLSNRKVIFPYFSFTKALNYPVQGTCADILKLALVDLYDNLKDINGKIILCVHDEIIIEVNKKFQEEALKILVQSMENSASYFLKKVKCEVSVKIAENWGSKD", "assay": "Fluorescence-based high-throughput DNA polymerase assay (molecular beacon), primary screen and dose-response;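 as to % inhibition ApPOL 90': test concentration in µM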;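 as to % inhibition apPOL 180': test concentration in µM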", "assay_type": "biochemical", "settings": "for IC50: supplemental file 2, sheet IC50 nontoxic compounds, Pf-apPOL; for DNA Pol: unit not given, 90 min, 10 µM", "outline": "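Single-point screening used 10 µM compound with 20 nM polymerase, 20 nM hairpin substrate and 6 µM dNTPs for 90 min at 25 °C. Confirmatory titrations (2.5–80 µM) followed fluorescence at three times, and IC50 was derived from a fit including a cooperativity term n.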"}
{"smiles": "O=C(O)c1cccc(N2N=C(C(F)(F)F)/C(=C/c3ccc(-c4ccccc4[N+](=O)[O-])o3)C2=O)c1", "note": "[Molecule 100]", "values": [{"measurement": "IC50", "value": 9.62, "unit": "µM"}]}
{"smiles": "CN(C)C1C(c2ccccc2)=C(c2ccccc2)SC(c2ccccc2)C1[N+](=O)[O-]", "note": "(stereo not drawn) [KU0268387]", "values": [{"measurement": "% inhibition Apo pol 10'", "setting": "DRC-1, concentration 2.5", "value": 4.043, "unit": "%"}, {"measurement": "% inhibition Apo pol 10'", "setting": "DRC-1, concentration 5", "value": 23.3831, "unit": "%"}, {"measurement": "% inhibition Apo pol 10'", "setting": "DRC-1, concentration 10", "value": 45.0315, "unit": "%"}, {"measurement": "% inhibition Apo pol 10'", "setting": "DRC-1, concentration 20", "value": 49.4618, "unit": "%"}, {"measurement": "% inhibition Apo pol 10'", "setting": "DRC-1, concentration 40", "value": 64.8423, "unit": "%"}, {"measurement": "% inhibition Apo pol 10'", "setting": "DRC-1, concentration 80", "value": 77.5449, "unit": "%"}, {"measurement": "% inhibition Apol 90'", "setting": "DRC-1, 90', concentration 2.5", "value": 3.398, "unit": "%"}, {"measurement": "% inhibition Apol 90'", "setting": "DRC-1, 90', concentration 5", "value": 22.5056, "unit": "%"}, {"measurement": "% inhibition Apol 90'", "setting": "DRC-1, 90', concentration 10", "value": 44.0197, "unit": "%"}, {"measurement": "% inhibition Apol 90'", "setting": "DRC-1, 90', concentration 20", "value": 52.549, "unit": "%"}, {"measurement": "% inhibition Apol 90'", "setting": "DRC-1, 90', concentration 40", "value": 68.5649, "unit": "%"}, {"measurement": "% inhibition Apol 90'", "setting": "DRC-1, 90', concentration 80", "value": 83.9893, "unit": "%"}, {"measurement": "% inhibition apPOL 180'", "setting": "DRC-1, 180', concentration 2.5", "value": 1.708, "unit": "%"}, {"measurement": "% inhibition apPOL 180'", "setting": "DRC-1, 180', concentration 5", "value": 12.7714, "unit": "%"}, {"measurement": "% inhibition apPOL 180'", "setting": "DRC-1, 180', concentration 10", "value": 32.8138, "unit": "%"}, {"measurement": "% inhibition apPOL 180'", "setting": "DRC-1, 180', concentration 20", "value": 41.7834, "unit": "%"}, {"measurement": "% inhibition apPOL 180'", "setting": "DRC-1, 180', concentration 40", "value": 60.315, "unit": "%"}, {"measurement": "% inhibition apPOL 180'", "setting": "DRC-1, 180', concentration 80", "value": 80.8354, "unit": "%"}, {"measurement": "% inhibition Apol 40'", "setting": "DRC-2, 40', concentration 20 (unit not given)", "value": 53, "unit": "%"}, {"measurement": "% inhibition ApPOL 90'", "setting": "DRC-2, 90', concentration 20 (unit not given)", "value": 53, "unit": "%"}, {"measurement": "% inhibition apPOL 180'", "setting": "DRC-2, 180', concentration 20 (unit not given)", "value": 47, "unit": "%"}, {"measurement": "% inhibition Apo pol 5'", "setting": "DRC-2, concentration 2.5", "value": 0.589, "unit": "%"}, {"measurement": "% inhibition Apo pol 5'", "setting": "DRC-2, concentration 5", "value": 19, "unit": "%"}, {"measurement": "% inhibition Apo pol 5'", "setting": "DRC-2, concentration 10", "value": 32, "unit": "%"}, {"measurement": "% inhibition Apo pol 5'", "setting": "DRC-2, concentration 20", "value": 40, "unit": "%"}, {"measurement": "% inhibition Apo pol 5'", "setting": "DRC-2, concentration 40", "value": 42, "unit": "%"}, {"measurement": "% inhibition Apo pol 5'", "setting": "DRC-2, concentration 80", "value": 47, "unit": "%"}, {"measurement": "% inhibition Apo pol 5'", "setting": "DRC-2, concentration 80 (unit not given)", "value": 47, "unit": "%"}, {"measurement": "% inhibition Apol 40'", "setting": "DRC-2, 40', concentration 2.5", "value": 1.84, "unit": "%"}, {"measurement": "% inhibition Apol 40'", "setting": "DRC-2, 40', concentration 5", "value": 25, "unit": "%"}, {"measurement": "% inhibition Apol 40'", "setting": "DRC-2, 40', concentration 10", "value": 39, "unit": "%"}, {"measurement": "% inhibition Apol 40'", "setting": "DRC-2, 40', concentration 20", "value": 53, "unit": "%"}, {"measurement": "% inhibition Apol 40'", "setting": "DRC-2, 40', concentration 40", "value": 60, "unit": "%"}, {"measurement": "% inhibition Apol 40'", "setting": "DRC-2, 40', concentration 80", "value": 68, "unit": "%"}, {"measurement": "% inhibition ApPOL 90'", "setting": "DRC-2, 90', concentration 2.5", "value": 0.484, "unit": "%"}, {"measurement": "% inhibition ApPOL 90'", "setting": "DRC-2, 90', concentration 5", "value": 23, "unit": "%"}, {"measurement": "% inhibition ApPOL 90'", "setting": "DRC-2, 90', concentration 10", "value": 38, "unit": "%"}, {"measurement": "% inhibition ApPOL 90'", "setting": "DRC-2, 90', concentration 20", "value": 53, "unit": "%"}, {"measurement": "% inhibition ApPOL 90'", "setting": "DRC-2, 90', concentration 40", "value": 62, "unit": "%"}, {"measurement": "% inhibition ApPOL 90'", "setting": "DRC-2, 90', concentration 80", "value": 71, "unit": "%"}, {"measurement": "% inhibition apPOL 180'", "setting": "DRC-2, 180', concentration 2.5", "value": -3.51, "unit": "%"}, {"measurement": "% inhibition apPOL 180'", "setting": "DRC-2, 180', concentration 5", "value": 15, "unit": "%"}, {"measurement": "% inhibition apPOL 180'", "setting": "DRC-2, 180', concentration 10", "value": 31, "unit": "%"}, {"measurement": "% inhibition apPOL 180'", "setting": "DRC-2, 180', concentration 20", "value": 47, "unit": "%"}, {"measurement": "% inhibition apPOL 180'", "setting": "DRC-2, 180', concentration 40", "value": 58, "unit": "%"}, {"measurement": "% inhibition apPOL 180'", "setting": "DRC-2, 180', concentration 80", "value": 70, "unit": "%"}, {"measurement": "DNA Pol", "setting": "primary screen value of the 186 hits", "value": 78}, {"measurement": "DNA Pol", "setting": "primary screen value, head \"DNA Pol\"", "value": 78}]}
{"smiles": "CCSc1nnc(NC(=O)Cc2csc(NC(=O)c3cnccn3)n2)s1", "note": "[Molecule 79]", "values": [{"measurement": "IC50", "value": 46.7, "unit": "µM"}]}
{"smiles": "O=c1cc(CN2CCCCC2)c2cc3c(cc2o1)OCO3", "note": "[Molecule 56]", "values": [{"measurement": "IC50", "value": 38.1, "unit": "µM"}]}
